Results as given in US8802724B2, “Processes and intermediates for preparing substituted hexahydrofuro [2,3-b] furans” (Purdue Research Foundation, priority 2010, dated 2014).
Where two headings read alike, the source gives them in different places.

How the values were obtained:
HIV-1LAI = test: Antiviral MTT assay, MT-2 cells exposed to HIV-1LAI; format: cell-based; conditions: Human immunodeficiency virus 1, MT2
Protocol: As shown in Scheme 4, alcohols 14, 15, 20, and 21 were activated with p-nitrophenyl chloroformate to provide mixed activated carbonates 21a-d. These carbonates were reacted with amine 22 to afford HIV-1 protease inhibitors 23a-d. These inhibitors were evaluated for their activity in both enzyme inhibitory and antiviral assays. The enzyme inhibitory activity (Ki) was determined according to an assay protocol reported by Toth and Marshall (Toth, M. V.; Marshall, G. R. Int. J. Pep. Protein Res. 1990, 36, 544-550). […] Antiviral IC50 values were determined using the MTT assay (Koh, Y., et al., Antimicrob. Agents Chemother. 2003, 47, 3123-3129.).

HIV-1 protease = HIV-1 protease (Human immunodeficiency virus type 1 group M subtype B (isolate HXB2) (HIV-1), UniProt P04585); test: biochemical; conditions: enzymatic inhibitory activity

Row | IC50 (HIV-1LAI; Human T-lymphoid (MT-2) cells exposed to 100 TCID50 of HIV-1LAI, MTT assay, means of at least three experiments, read-out: IC50) [nM] | Compound | IC50 (HIV-1LAI) [nM] | Ki (HIV-1 protease) [nM]
1 |  | COc1ccc(S(=O)(=O)N(CC(C)C)C[C@@H](O)[C@H](Cc2ccccc2)NC(=O)O[C@H]2CO[C@H]3OC[C@H](OC)[C@H]32)cc1 [Compound 23c, (3R,3aS,4R,6aR)-4-methoxyhexahydrofuro[2,3-b]furan-3-yl-(2S,3R)-3-hydroxy-4-(N-isobutyl-4-methoxyphenylsulfonamido)-1-phenylbutan-2-ylcarbamate] | 2.4 | 0.0029
2 | 1.4 | COc1ccc(S(=O)(=O)N(CC(C)C)C[C@@H](O)[C@H](Cc2ccccc2)NC(=O)O[C@H]2CO[C@H]3OCC[C@H]32)cc1 [Entry 1, reference compound] |  | 
3 |  | COc1ccc(S(=O)(=O)N(CC(C)C)C[C@@H](O)[C@H](Cc2ccccc2)NC(=O)O[C@H]2CO[C@H]3OC[C@@H](OCc4ccccc4)[C@H]32)cc1 [Compound 23b, (3R,3aS,4S,6aR)-4-(benzyloxy)hexahydrofuro[2,3-b]furan-3-yl-(2S,3R)-3-hydroxy-4-(N-isobutyl-4-methoxyphenylsulfonamido)-1-phenylbutan-2-ylcarbamate] | 335 | 0.073
4 |  | COc1ccc(S(=O)(=O)N(CC(C)C)C[C@@H](O)[C@H](Cc2ccccc2)NC(=O)O[C@H]2CO[C@H]3OC[C@H](OCc4ccccc4)[C@H]32)cc1 [Compound 23d, (3R,3aS,4R,6aR)-4-(benzyloxy)hexahydrofuro[2,3-b]furan-3-yl-(2S,3R)-3-hydroxy-4-(N-isobutyl-4-methoxyphenylsulfonamido)-1-phenylbutan-2-ylcarbamate] |  | 0.3
5 |  | COc1ccc(S(=O)(=O)N(CC(C)C)C[C@@H](O)[C@H](Cc2ccccc2)NC(=O)O[C@H]2CO[C@H]3OC[C@@H](OC)[C@H]32)cc1 [Compound 23a, (3R,3aS,4S,6aR)-4-methoxyhexahydrofuro[2,3-b]furan-3-yl-(2S,3R)-3-hydroxy-4-(N-isobutyl-4-methoxyphenylsulfonamido)-1-phenylbutan-2-ylcarbamate] | 56 | 0.035
